According to patent publication US11613522B2, “Herbicidally active 3-phenylisoxazoline-5-carboxamides of tetrahydro- and dihydrofurancarboxamides” (BAYER AKTIENGESELLSCHAFT, priority 2017, dated 2023):

Experiments:
Format in all cases: in vivo
[1] = system: Echinochloa crus-galli; assay: Post-emergence herbicidal activity against ECHCG; conditions: dosage 320 g/ha, rated visually after about 3 weeks; for pest or weed control at 320 g/ha: Echinochloa crus-galli, 504 h
How it was run: (§1)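 Post-emergence foliar spray of wettable-powder or emulsion-concentrate formulations (0.5% additive, 600 l/ha water) onto one-leaf-stage greenhouse plants. Percent activity scored by eye after ~3 weeks against untreated plants; 0% equals control growth, 100% equals plant death.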

[2] = system: Avena fatua; assay: Post-emergence herbicidal activity against AVEFA; conditions: dosage 320 g/ha, rated visually after about 3 weeks; for pest or weed control at 320 g/ha: Avena fatua, 504 h
How it was run: as §1

[3] = system: Viola tricolor; assay: Post-emergence herbicidal activity against VIOTR; conditions: dosage 320 g/ha, rated visually after about 3 weeks; for pest or weed control at 320 g/ha: Viola tricolor, 504 h
How it was run: as §1

[4] = system: Veronica persica; assay: Post-emergence herbicidal activity against VERPE; conditions: dosage 320 g/ha, rated visually after about 3 weeks; for pest or weed control at 320 g/ha: Veronica persica, 504 h
How it was run: as §1

[5] = system: Amaranthus retroflexus; assay: Post-emergence herbicidal activity against AMARE; conditions: dosage 320 g/ha, rated visually after about 3 weeks; for pest or weed control at 320 g/ha: Amaranthus retroflexus, 504 h
How it was run: as §1

[6] = system: Polygonum convolvulus; assay: Post-emergence herbicidal activity against POLCO; conditions: dosage 320 g/ha, rated visually after about 3 weeks; for pest or weed control at 320 g/ha: Fallopia convolvulus, 504 h
How it was run: as §1

[7] = system: Echinochloa crus-galli; assay: Pre-emergence herbicidal activity against ECHCG; conditions: dosage 80 g/ha, scored visually after about 3 weeks vs untreated controls; for pest or weed control at 80 g/ha: Echinochloa crus-galli, 504 h
How it was run: (§2)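 Emulsion concentrates or wettable powders, diluted in water containing 0.5% additive, go onto covering soil at a spray volume of 600 l/ha. Percent herbicidal effect is judged by eye about 3 weeks later in the greenhouse, 0% meaning like control plants and 100% meaning dead.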

[8] = system: Polygonum convolvulus; assay: Pre-emergence herbicidal activity against POLCO; conditions: dosage 80 g/ha, scored visually after about 3 weeks vs untreated controls; for pest or weed control at 80 g/ha: Fallopia convolvulus, 504 h
How it was run: as §2

[9] = system: Amaranthus retroflexus; assay: Pre-emergence herbicidal activity against AMARE; conditions: dosage 80 g/ha, scored visually after about 3 weeks vs untreated controls; for pest or weed control at 80 g/ha: Amaranthus retroflexus, 504 h
How it was run: as §2

[10] = system: Alopecurus myosuroides; assay: Post-emergence herbicidal activity against ALOMY; conditions: dosage 320 g/ha, rated visually after about 3 weeks; for pest or weed control at 320 g/ha: Alopecurus myosuroides, 504 h
How it was run: as §1

[11] = system: Abutilon theophrasti; assay: Post-emergence herbicidal activity against ABUTH; conditions: dosage 320 g/ha, rated visually after about 3 weeks; for pest or weed control at 320 g/ha: Abutilon theophrasti, 504 h
How it was run: as §1

[12] = system: Veronica persica; assay: Pre-emergence herbicidal activity against VERPE; conditions: dosage 80 g/ha; for pest or weed control at 80 g/ha: Veronica persica, 504 h
How it was run: as §2

[13] = system: Lolium rigidum; assay: Pre-emergence herbicidal activity against LOLRI; conditions: dosage 80 g/ha, scored visually after about 3 weeks vs untreated controls; for pest or weed control at 80 g/ha: Lolium rigidum, 504 h
How it was run: as §2

[14] = Pre-emergence herbicidal action against harmful plants (summary of the tables); conditions: 504 h, application rate of 0.08 kg of active substance or less per hectare, read-out: herbicidal action, pre-emergence treatment (very good activity)
Description: (§3) 1. Pre-emergence herbicidal action against harmful plants and crop plant compatibility Seeds of monocotyledonous and dicotyledonous weed plants and crop plants are placed in plastic or wood fiber pots and covered with soil. The compounds of the invention, formulated in the form of wettable powders (WP) or as emulsion concentrates (EC), are then applied onto the surface of the covering soil as aqueous suspension or emulsion with addition of 0.5% additive at a water application rate of 600 l/ha (converted). After the treatment, the pots are placed in a greenhouse and kept under good growth conditions for the trial plants. After about 3 weeks, the effect of the preparations is scored visually in comparison with untreated controls as percentages. For example, 100% activity=the plants have died, 0% activity=like control plants.
As shown by the results, compounds according to the invention such as, for example, the compounds No. I-02 and other compounds from the tables (I-05, I-10, I-11, I-12, I-13, I-14, I-15, I-16, I-17, I-18, I-19, I-20, I-21, I-22, I-23, I-24, I-25, I-26, I-27, I-28, I-29) have, when used for pre-emergence treatment, very good activity (80% to 100% herbicidal action) against harmful plants such as Abutilon theophrasti, Alopecurus myosuroides, Amaranthus retroflexus, Avena fatua, Cyperus esculentus, Echinochloa crus-galli, Hordeum murinum, Lolium rigidum, Pharbitis purpurea, Polygonum convolvulus, Setaria viridis, Stellaria media, Veronica persica and Viola tricolor at an application rate of 0.08 kg of active substance or less per hectare.

[15] = system: Setaria viridis; assay: Pre-emergence herbicidal activity against SETVI; conditions: dosage 80 g/ha, scored visually after about 3 weeks vs untreated controls; for pest or weed control at 80 g/ha: Setaria viridis, 504 h
How it was run: as §2

[16] = system: Pharbitis purpurea; assay: Pre-emergence herbicidal activity against PHBPU; conditions: dosage 80 g/ha, scored visually after about 3 weeks vs untreated controls
Description: as §3, with “control plants. [table]” for “control plants.”

[17] = system: Lolium rigidum; assay: Post-emergence herbicidal activity against LOLRI; conditions: dosage 320 g/ha, rated visually after about 3 weeks; for pest or weed control at 320 g/ha: Lolium rigidum, 504 h
How it was run: as §1

[18] = system: Stellaria media; assay: Post-emergence herbicidal activity against STEME; conditions: dosage 320 g/ha, rated visually after about 3 weeks; for pest or weed control at 320 g/ha: Stellaria media, 504 h
How it was run: as §1

[19] = system: Pharbitis purpurea; assay: Post-emergence herbicidal activity against PHBPU; conditions: dosage 320 g/ha, rated visually after about 3 weeks; for pest or weed control at 320 g/ha: Ipomoea purpurea, 504 h
How it was run: as §1

[20] = system: Viola tricolor; assay: Pre-emergence herbicidal activity against VIOTR; conditions: dosage 80 g/ha, scored visually after about 3 weeks vs untreated controls; for pest or weed control at 80 g/ha: Viola tricolor, 504 h
How it was run: as §2

[21] = system: Alopecurus myosuroides; assay: Pre-emergence herbicidal activity against ALOMY; conditions: dosage 80 g/ha, scored visually after about 3 weeks vs untreated controls; for pest or weed control at 80 g/ha: Alopecurus myosuroides, 504 h
How it was run: as §2

[22] = system: Hordeum murinum; assay: Post-emergence herbicidal activity against HORMU; conditions: dosage 320 g/ha, rated visually after about 3 weeks; for pest or weed control at 320 g/ha: Hordeum murinum, 504 h
How it was run: as §1

[23] = system: Stellaria media; assay: Pre-emergence herbicidal activity against STEME; conditions: dosage 80 g/ha, scored visually after about 3 weeks vs untreated controls; for pest or weed control at 80 g/ha: Stellaria media, 504 h
How it was run: as §2

[24] = system: Avena fatua; assay: Pre-emergence herbicidal activity against AVEFA; conditions: dosage 80 g/ha, scored visually after about 3 weeks vs untreated controls; for pest or weed control at 80 g/ha: Avena fatua, 504 h, read-out: Pre-emergence herbicidal activity in % against AVEVA (AVEFA)
How it was run: as §2

[25] = system: Hordeum murinum; assay: Pre-emergence herbicidal activity against HORMU; conditions: dosage 80 g/ha; for pest or weed control at 80 g/ha: Hordeum murinum, 504 h
How it was run: as §2

[26] = system: Setaria viridis; assay: Post-emergence herbicidal activity against SETVI; conditions: dosage 320 g/ha, rated visually after about 3 weeks
How it was run: as §1

In the case of `C=C[C@]1(C(=O)N[C@@H]2CO[C@H](C(=O)NOCC)C2)CC(c2cc(F)cc(F)c2)=NO1` (mixture of isomers) [Example I-12, (5S)-3-(3,5-difluorophenyl)-N-[cis-5-(ethoxycarbamoyl)tetrahydrofuran-3-yl]-5-vinyl-4H-isoxazole-5-carboxamide], the pest or weed control at 320 g/ha [1] is reported as 90%, the pest or weed control at 320 g/ha [2] is reported as 100% and the pest or weed control at 320 g/ha [3] is reported as 80%. It also gave a pest or weed control at 320 g/ha [4] of 80%, a pest or weed control at 320 g/ha [5] of 80% and a pest or weed control at 320 g/ha [6] of 80%. For the same compound, the pest or weed control at 80 g/ha [7] was 100%, the pest or weed control at 80 g/ha [8] was 100% and the pest or weed control at 80 g/ha [9] was 100%. The pest or weed control at 320 g/ha [10] was 90%, the pest or weed control at 320 g/ha [11] was 80% and the pest or weed control at 80 g/ha [12] was 100%. It also gave a pest or weed control at 80 g/ha [13] of 100%, a pest or weed control at 80 g/ha [14] of 80 to 100% and a pest or weed control at 80 g/ha [15] of 100%. The “Pre-emergence herbicidal activity in % against PHBPU” value [16] was 90%, the pest or weed control at 320 g/ha [17] was 90% and the pest or weed control at 320 g/ha [18] was 90%. The pest or weed control at 320 g/ha [19] was 80%, the pest or weed control at 80 g/ha [20] was 100% and the pest or weed control at 80 g/ha [21] was 100%. For the same compound, the pest or weed control at 320 g/ha [22] was 90%, the pest or weed control at 80 g/ha [23] was 100% and the pest or weed control at 80 g/ha [24] was 100%. It also gave a pest or weed control at 80 g/ha [25] of 100%.

`C=C[C@]1(C(=O)N[C@@H]2CO[C@H](C(=O)NS(=O)(=O)C(F)(F)F)C2)CC(c2cc(F)cc(F)c2)=NO1` (mixture of isomers) [Example I-14, (5S)-3-(3,5-difluorophenyl)-N-[cis-5-(trifluoromethylsulfonylcarbamoyl)tetrahydrofuran-3-yl]-5-vinyl-4H-isoxazole-5-carboxamide] gave a pest or weed control at 320 g/ha [1] of 80%, a pest or weed control at 320 g/ha [2] of 80% and a pest or weed control at 320 g/ha [3] of 100%. It also gave a pest or weed control at 320 g/ha [4] of 90%, a pest or weed control at 320 g/ha [5] of 80% and a pest or weed control at 320 g/ha [6] of 80%. For the same compound, the pest or weed control at 80 g/ha [7] was 100%, the pest or weed control at 80 g/ha [8] was 100% and the pest or weed control at 80 g/ha [9] was 100%. It also gave a pest or weed control at 320 g/ha [10] of 90%, a pest or weed control at 320 g/ha [11] of 90% and a pest or weed control at 80 g/ha [12] of 90%. The pest or weed control at 80 g/ha [13] was 100%, the pest or weed control at 80 g/ha [14] was 80 to 100% and the pest or weed control at 80 g/ha [15] was 100%. For the same compound, the “Pre-emergence herbicidal activity in % against PHBPU” value [16] was 90%, the pest or weed control at 320 g/ha [17] was 90% and the pest or weed control at 320 g/ha [18] was 90%. The pest or weed control at 320 g/ha [19] was 80%, the pest or weed control at 80 g/ha [20] was 100% and the pest or weed control at 80 g/ha [21] was 100%. For the same compound, the pest or weed control at 320 g/ha [22] was 80%, the pest or weed control at 80 g/ha [23] was 90% and the pest or weed control at 80 g/ha [24] was 90%. The pest or weed control at 80 g/ha [25] was 90%.

In the case of `CONC(=O)[C@@H]1C[C@H](NC(=O)[C@@]2(C)CC(c3cc(F)cc(F)c3)=NO2)CO1` [Example I-24], the “Post-emergence herbicidal activity in % against ECHCG” value [1] is reported as 100%, the “Post-emergence herbicidal activity in % against AVEFA” value [2] is reported as 100% and the “Post-emergence herbicidal activity in % against VIOTR” value [3] is reported as 90%. The “Post-emergence herbicidal activity in % against VERPE” value [4] was 80%, the “Post-emergence herbicidal activity in % against AMARE” value [5] was 80% and the “Post-emergence herbicidal activity in % against POLCO” value [6] was 80%. For the same compound, the “Pre-emergence herbicidal activity in % against ECHCG” value [7] was 90%, the “Pre-emergence herbicidal activity in % against POLCO” value [8] was 90% and the “Pre-emergence herbicidal activity in % against AMARE” value [9] was 100%. For the same compound, the “Post-emergence herbicidal activity in % against ALOMY” value [10] was 100%, the “Post-emergence herbicidal activity in % against ABUTH” value [11] was 80% and the “Pre-emergence herbicidal activity in % against VERPE” value [12] was 90%. For the same compound, the “Pre-emergence herbicidal activity in % against LOLRI” value [13] was 100%, the “Pre-emergence herbicidal activity in % against SETVI” value [15] was 100% and the “Pre-emergence herbicidal activity in % against PHBPU” value [16] was 90%. For the same compound, the “Post-emergence herbicidal activity in % against LOLRI” value [17] was 100%, the “Post-emergence herbicidal activity in % against STEME” value [18] was 100% and the “Post-emergence herbicidal activity in % against PHBPU” value [19] was 90%. For the same compound, the “Pre-emergence herbicidal activity in % against VIOTR” value [20] was 90%, the “Pre-emergence herbicidal activity in % against ALOMY” value [21] was 100% and the “Post-emergence herbicidal activity in % against HORMU” value [22] was 100%. For the same compound, the “Pre-emergence herbicidal activity in % against STEME” value [23] was 90%, the “Pre-emergence herbicidal activity in % against AVEVA (AVEFA)” value [24] was 100% and the “Post-emergence herbicidal activity in % against SETVI” value [26] was 80%. The “Pre-emergence herbicidal activity in % against HORMU” value [25] was 100%.
